Patent US10946029B2, “Dry powder formulation comprising a corticosteroid and a beta-adrenergic for administration by inhalation” (CHIESI FARMACEUTICI S.p.A., priority 2012, dated 2021)

Tests used:
[1] = Particle size distribution by laser diffraction (Malvern apparatus); type: physicochemical; conditions: micronised beclometasone dipropionate; for Span: [d(v,0.9)−d(v,0.1)]/d(v,0.5); for d (v, 0.1): volume diameter of 10% of the particles; for d (v, 0.5): volume diameter of 50% of the particles; for d (v, 0.9): volume diameter of 90% of the particles
Protocol: The size of the particles active is determined by measuring the characteristic equivalent sphere diameter, known as volume diameter, by laser diffraction. In the reported examples, the volume diameter has been determined using a Malvern apparatus, However, other equivalent apparatus may be used by the skilled person in the art.
(§1) The particle size was determined by laser diffraction using a Malvern apparatus. The parameter taken into consideration was the VD in micron of 10%, 50% and 90% of the particles expressed as d(v,0.1), d(v, 0.5) and d(v, 0.9), respectively, which correspond to the mass diameter assuming a size independent density for the particles. The span [d(v,0.9)−d(v,0.1)]/d(v,0.5) is also reported. The Specific Surface Area (SSA) was determined by BET nitrogen adsorption using a Coulter SA3100 apparatus as a mean of three determinations.

[2] = Specific Surface Area by BET nitrogen adsorption (Coulter SA3100); type: physicochemical; conditions: micronised beclometasone dipropionate; mean of three determinations
Protocol: Advantageously, the micronized particles of BDP have also a specific surface area comprised between 5.5 and 7.0 m^2/g, preferably between 5.9 and 6.8 m^2/g. The Specific Surface Area is determined by Brunauer-Emmett-Teller (BET) nitrogen adsorption method according to a procedure known in the art.
as §1

Row | Span [1] | d (v, 0.1) [1] [μm] | d (v, 0.5) [1] [μm] | d (v, 0.9) [1] [μm] | SSA [2] [m^2/g] | SMILES
1 | 1.31 | 0.96 | 1.81 | 3.33 | 5.90 | CCC(=O)OCC(=O)[C@@]1(OC(=O)CC)[C@@H](C)C[C@H]2[C@@H]3CCC4=CC(=O)C=C[C@]4(C)[C@@]3(Cl)[C@@H](O)C[C@@]21C [Batch 2, beclometasone dipropionate]
2 | 1.19 | 0.95 | 1.71 | 2.97 | 6.12 | CCC(=O)OCC(=O)[C@@]1(OC(=O)CC)[C@@H](C)C[C@H]2[C@@H]3CCC4=CC(=O)C=C[C@]4(C)[C@@]3(Cl)[C@@H](O)C[C@@]21C [Batch 3, beclometasone dipropionate]
3 | 1.41 | 0.86 | 1.63 | 3.15 | 6.61 | CCC(=O)OCC(=O)[C@@]1(OC(=O)CC)[C@@H](C)C[C@H]2[C@@H]3CCC4=CC(=O)C=C[C@]4(C)[C@@]3(Cl)[C@@H](O)C[C@@]21C [Batch 1, beclometasone dipropionate]
4 | 1.54 | 0.91 | 1.84 | 3.76 | 6.28 | CCC(=O)OCC(=O)[C@@]1(OC(=O)CC)[C@@H](C)C[C@H]2[C@@H]3CCC4=CC(=O)C=C[C@]4(C)[C@@]3(Cl)[C@@H](O)C[C@@]21C [Batch 4, beclometasone dipropionate]
